PubChem BioAssay (NCI)
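All cell lines were grown in 96-well plates and treated with compound for 48 hours. At the GI50, growth is halved. TGI is the concentration that stops growth completely.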

How the values were obtained:
Experiment in all cases: DTP human tumour cell line panel, 48 h
[1] = tested on: A498 renal
[2] = tested on: CAKI-1 renal
[3] = tested on: HCT-15 colon
[4] = tested on: HL-60(TB) leukemia
[5] = tested on: HOP-62 NSCLC
[6] = tested on: NCI-H226 lung
[7] = tested on: SF-295 CNS
[8] = tested on: SK-MEL-28 melanoma
[9] = tested on: SW-620 colon
[10] = tested on: TK-10 renal

Row | Structure (SMILES) | TGI [1] [µM] | TGI [2] [µM] | TGI [3] [µM] | TGI [4] [µM] | TGI [5] [µM] | TGI [6] [µM] | TGI [7] [µM] | TGI [8] [µM] | TGI [9] [µM] | TGI [10] [µM] | GI50 [1] [nM] | GI50 [2] [nM] | GI50 [3] [nM] | GI50 [4] [nM] | GI50 [5] [µM] | GI50 [6] [µM] | GI50 [7] [nM] | GI50 [8] [nM] | GI50 [9] [nM] | GI50 [10] [µM]
1 | Cc1cc2c(cc1C)[n+](=O)c(C(=O)/C=C/c1ccccc1Cl)c(C)n2[O-] | 96.7 | 43.2 | 75.3 | 99.6 | 58.9 | > 100 | > 100 | 86.8 | > 100 | 57.3 | – | – | – | – | – | – | – | – | – | –
2 | C=C(CN1CCN(c2cccc(F)c2)CC1)c1ccc(C(=O)Nc2ccccc2N)cc1 | 9.08 | 7.74 | > 100 | 2.26 | 17.5 | 35.2 | 73.6 | 38.6 | > 100 | > 100 | 2120 | 629 | 1020 | 357 | 0.83 | 4.17 | 2770 | 676 | 2530 | 5.95
3 | COc1ccc(Cn2c(Br)c3c(c2-c2cc(OC)c(OC)c(OC)c2)CCc2sc(NC(C)=O)nc2-3)cc1 | 9.58 | > 100 | 32.2 | 8.06 | > 100 | > 100 | 8.54 | > 100 | > 100 | 37.6 | 2500 | 4210 | 3120 | 3270 | 5.52 | 39.3 | 2410 | 5090 | 3630 | 6.17
4 | COc1ccc(CNc2nc(NCc3ccc(OC)cc3)c3n[nH]c(C(C)C)c3n2)cc1 | 16.7 | > 100 | 28.8 | 6.44 | 24.4 | 59.8 | 9.96 | 16 | > 100 | 24.4 | 2210 | 6440 | 5090 | 2750 | 10 | 14.1 | 3240 | 2130 | 3270 | 8.29
5 | Oc1cc2c(cc1O)-c1[nH]ncc1CC2 | 95.8 | > 100 | > 100 | 76.6 | > 100 | 69 | > 100 | > 100 | > 100 | > 100 | – | – | – | – | – | – | – | – | – | –
6 | C/C(=N\NC(=O)c1ccncc1)c1ccc(O)cc1O | > 100 | 8 | > 100 | 32.6 | > 100 | 80.9 | 6.69 | > 100 | > 100 | > 100 | 8610 | 2370 | 4830 | 3400 | 3.93 | 5.14 | 2390 | 9260 | 7680 | > 100
7 | O=c1[nH]c(/C=C(\O)c2ccncc2)nc2ccccc12 | > 100 | > 100 | > 100 | > 100 | > 100 | > 100 | > 100 | > 100 | > 100 | > 100 | – | – | – | – | – | – | – | – | – | –
8 | O=[N+]([O-])c1ccc(-c2cn(-c3ccc(Cl)cc3)cn2)cc1 | > 100 | > 100 | > 100 | > 100 | 34.6 | > 100 | 36.9 | > 100 | > 100 | 67.5 | – | – | – | – | – | – | – | – | – | –
9 | C[C@@]1(N2C(=O)OC[C@@H]2c2ccccc2)C(=O)N([C@H](CC(=O)N2CCC(N3CCCCC3)CC2)C(=O)NCc2cccc(C(F)(F)F)c2)[C@@H]1/C=C/c1ccccc1 | 5.98 | 6.55 | 3.62 | 4.65 | 5.76 | 39.7 | 3.42 | 3.51 | 4.09 | 3.76 | 1880 | 2300 | 1790 | 2130 | 2.03 | 22.5 | 1730 | 1800 | 1980 | 1.8
10 | CN(C)/C(N)=N/C(N)=S | > 100 | > 100 | > 100 | > 100 | > 100 | > 100 | > 100 | > 100 | > 100 | > 100 | – | – | – | – | – | – | – | – | – | –
11 | Nc1c(C(=O)Nc2ccccc2)sc2nc3c(cc12)CCCC3 | 30 | > 100 | > 100 | 20.8 | > 67.6 | > 100 | 49.6 | > 100 | > 100 | > 100 | 227 | 1130 | 436 | 299 | 0.781 | 3.31 | 635 | 14700 | 403 | 16.8
12 | O=C1C(N2C(=O)c3ccccc3C2=O)CN1C(COCc1ccccc1)c1ccc(OCc2ccccc2)cc1 (stereo not given) | > 100 | > 100 | > 100 | > 100 | > 100 | > 100 | > 100 | > 100 | > 100 | > 100 | – | – | – | – | – | – | – | – | – | –
13 | COC(=O)C1C2CCCN2OC1(C)CO (stereo not given) | > 100 | > 100 | > 100 | > 100 | > 100 | > 100 | > 100 | > 100 | > 100 | > 100 | – | – | – | – | – | – | – | – | – | –
14 | CCN(CC)CC(O)C1CCC(c2ccccc2)CC1 (stereo not given) | 42.9 | 42.2 | 42.3 | 58 | > 100 | 33.3 | 36.6 | 48.9 | 80.9 | 31.2 | – | – | – | – | – | – | – | – | – | –
15 | Cc1ccccc1/C=C1\CN(C(=O)OC(C)(C)C)C/C(=C\c2ccccc2C)C1=O | 6.24 | 4.25 | 5.76 | 8.8 | 11.3 | 4.14 | 5.37 | 6.43 | 7.07 | 15 | 3000 | 2060 | 2100 | 2470 | 3.43 | 2.01 | 2190 | 2800 | 2990 | 3.65
16 | N#CC1=C(c2ccccc2)C(O)(c2ccccc2)NC1=O (stereo not given) | 60.6 | > 100 | > 100 | > 100 | > 100 | > 100 | > 100 | > 100 | > 100 | > 100 | – | – | – | – | – | – | – | – | – | –
